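A five-concentration, 48-hour dose response in 96-well plates underlies each endpoint, interpolated linearly between surrounding concentrations. TGI marks complete inhibition of growth.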
Legend:
Assay in all cases: NCI tumour cell line growth inhibition, 48 h
786-0 renal = tested on: 786-0 renal
A498 renal = tested on: A498 renal
A549 NSCLC = tested on: A549 NSCLC
ACHN renal = tested on: ACHN renal
BT-549 breast = tested on: BT-549 breast
CCRF-CEM leukemia = tested on: CCRF-CEM leukemia
DU-145 prostate = tested on: DU-145 prostate
EKVX NSCLC = tested on: EKVX NSCLC
HCC-2998 colon = tested on: HCC-2998 colon
HCT-116 colon = tested on: HCT-116 colon
HL-60(TB) leukemia = tested on: HL-60(TB) leukemia
HOP-62 NSCLC = tested on: HOP-62 NSCLC
HOP-92 NSCLC = tested on: HOP-92 NSCLC
HS 578T breast = tested on: HS 578T breast
HT29 colon = tested on: HT29 colon
IGROV1 ovarian = tested on: IGROV1 ovarian
K-562 leukemia = tested on: K-562 leukemia
KM12 colon = tested on: KM12 colon
M14 melanoma = tested on: M14 melanoma
MALME-3M melanoma = tested on: MALME-3M melanoma
MCF7 breast = tested on: MCF7 breast
MDA-MB-231 breast = tested on: MDA-MB-231 breast
MDA-MB-435 = tested on: MDA-MB-435
MDA-N = tested on: MDA-N
MOLT-4 leukemia = tested on: MOLT-4 leukemia
NCI-H226 lung = tested on: NCI-H226 lung
NCI-H23 lung = tested on: NCI-H23 lung
NCI-H460 lung = tested on: NCI-H460 lung
NCI/ADR-RES ovarian = tested on: NCI/ADR-RES ovarian
OVCAR-3 ovarian = tested on: OVCAR-3 ovarian
OVCAR-5 ovarian = tested on: OVCAR-5 ovarian
OVCAR-8 ovarian = tested on: OVCAR-8 ovarian
PC-3 prostate = tested on: PC-3 prostate
RXF 393 renal = tested on: RXF 393 renal
SF-268 CNS = tested on: SF-268 CNS
SF-295 CNS = tested on: SF-295 CNS
SF-539 CNS = tested on: SF-539 CNS
SK-MEL-2 melanoma = tested on: SK-MEL-2 melanoma
SK-MEL-28 melanoma = tested on: SK-MEL-28 melanoma
SK-MEL-5 melanoma = tested on: SK-MEL-5 melanoma
SK-OV-3 ovarian = tested on: SK-OV-3 ovarian
SN12C renal = tested on: SN12C renal
SNB-19 CNS = tested on: SNB-19 CNS
SR leukemia = tested on: SR leukemia
SW-620 colon = tested on: SW-620 colon
T-47D breast = tested on: T-47D breast
TK-10 renal = tested on: TK-10 renal
U251 CNS = tested on: U251 CNS
UACC-62 melanoma = tested on: UACC-62 melanoma
UO-31 renal = tested on: UO-31 renal
CAKI-1 renal = tested on: CAKI-1 renal
COLO 205 colon = tested on: COLO 205 colon
HCT-15 colon = tested on: HCT-15 colon
LOX IMVI melanoma = tested on: LOX IMVI melanoma
NCI-H522 lung = tested on: NCI-H522 lung
OVCAR-4 ovarian = tested on: OVCAR-4 ovarian
RPMI-8226 leukemia = tested on: RPMI-8226 leukemia
SNB-75 CNS = tested on: SNB-75 CNS
UACC-257 melanoma = tested on: UACC-257 melanoma

Q: How did the TGI (786-0 renal) turn out when `COc1ccc(C[n+]2cccc(O)c2)cc1` was run?
A: > 100 µM

Q: What about the TGI (A498 renal) of the same compound?
A: > 100 µM

Q: And the TGI (A549 NSCLC)?
A: > 100 µM

Q: And the TGI (ACHN renal)?
A: > 100 µM

Q: And the TGI (BT-549 breast)?
A: > 100 µM

Q: What about the TGI (CCRF-CEM leukemia) of the same compound?
A: > 100 µM

Q: And the TGI (DU-145 prostate)?
A: > 100 µM

Q: What about the TGI (EKVX NSCLC) of the same compound?
A: > 100 µM

Q: What about the TGI (HCC-2998 colon) of the same compound?
A: > 100 µM

Q: What about the TGI (HCT-116 colon) of the same compound?
A: > 100 µM

Q: What about the TGI (HL-60(TB) leukemia) of the same compound?
A: > 100 µM

Q: And the TGI (HOP-62 NSCLC)?
A: > 100 µM

Q: And the TGI (HOP-92 NSCLC)?
A: > 100 µM

Q: And the TGI (HS 578T breast)?
A: > 100 µM

Q: And the TGI (HT29 colon)?
A: > 100 µM

Q: And the TGI (IGROV1 ovarian)?
A: > 100 µM

Q: And the TGI (K-562 leukemia)?
A: > 100 µM

Q: And the TGI (KM12 colon)?
A: > 100 µM

Q: What about the TGI (M14 melanoma) of the same compound?
A: > 100 µM

Q: What about the TGI (MALME-3M melanoma) of the same compound?
A: > 100 µM

Q: And the TGI (MCF7 breast)?
A: > 100 µM

Q: What about the TGI (MDA-MB-231 breast) of the same compound?
A: > 100 µM

Q: And the TGI (MDA-MB-435)?
A: > 100 µM

Q: What about the TGI (MDA-N) of the same compound?
A: > 100 µM

Q: And the TGI (MOLT-4 leukemia)?
A: > 100 µM

Q: What about the TGI (NCI-H226 lung) of the same compound?
A: > 100 µM

Q: What about the TGI (NCI-H23 lung) of the same compound?
A: > 100 µM

Q: What about the TGI (NCI-H460 lung) of the same compound?
A: > 100 µM

Q: What about the TGI (NCI/ADR-RES ovarian) of the same compound?
A: > 100 µM

Q: What about the TGI (OVCAR-3 ovarian) of the same compound?
A: > 100 µM

Q: What about the TGI (OVCAR-5 ovarian) of the same compound?
A: > 100 µM

Q: And the TGI (OVCAR-8 ovarian)?
A: > 100 µM

Q: And the TGI (PC-3 prostate)?
A: > 100 µM

Q: And the TGI (RXF 393 renal)?
A: > 100 µM

Q: And the TGI (SF-268 CNS)?
A: > 100 µM

Q: What about the TGI (SF-295 CNS) of the same compound?
A: > 100 µM

Q: And the TGI (SF-539 CNS)?
A: > 100 µM

Q: What about the TGI (SK-MEL-2 melanoma) of the same compound?
A: > 100 µM

Q: What about the TGI (SK-MEL-28 melanoma) of the same compound?
A: > 100 µM

Q: What about the TGI (SK-MEL-5 melanoma) of the same compound?
A: > 100 µM

Q: What about the TGI (SK-OV-3 ovarian) of the same compound?
A: > 100 µM

Q: What about the TGI (SN12C renal) of the same compound?
A: > 100 µM

Q: What about the TGI (SNB-19 CNS) of the same compound?
A: > 100 µM

Q: And the TGI (SR leukemia)?
A: > 100 µM

Q: And the TGI (SW-620 colon)?
A: > 100 µM

Q: What about the TGI (T-47D breast) of the same compound?
A: > 100 µM

Q: And the TGI (TK-10 renal)?
A: > 100 µM

Q: And the TGI (U251 CNS)?
A: > 100 µM

Q: What about the TGI (UACC-62 melanoma) of the same compound?
A: > 100 µM

Q: And the TGI (UO-31 renal)?
A: > 100 µM

Q: For `CCOc1cc(/C=N/c2nc3cc4sc(/N=C/c5ccc(O)c(OCC)c5)nc4cc3s2)ccc1O`, which TGI (786-0 renal) is on record?
A: > 100 µM

Q: What about the TGI (A498 renal) of the same compound?
A: > 100 µM

Q: What about the TGI (A549 NSCLC) of the same compound?
A: > 100 µM

Q: What about the TGI (ACHN renal) of the same compound?
A: > 100 µM

Q: What about the TGI (BT-549 breast) of the same compound?
A: > 100 µM

Q: What about the TGI (CAKI-1 renal) of the same compound?
A: > 100 µM

Q: And the TGI (COLO 205 colon)?
A: > 100 µM

Q: What about the TGI (DU-145 prostate) of the same compound?
A: > 100 µM

Q: And the TGI (EKVX NSCLC)?
A: > 100 µM

Q: What about the TGI (HCC-2998 colon) of the same compound?
A: > 100 µM

Q: What about the TGI (HCT-116 colon) of the same compound?
A: > 100 µM

Q: And the TGI (HCT-15 colon)?
A: > 100 µM

Q: What about the TGI (HL-60(TB) leukemia) of the same compound?
A: 19.9 µM

Q: What about the TGI (HOP-62 NSCLC) of the same compound?
A: > 100 µM

Q: And the TGI (HOP-92 NSCLC)?
A: > 100 µM

Q: What about the TGI (HS 578T breast) of the same compound?
A: > 100 µM

Q: What about the TGI (HT29 colon) of the same compound?
A: > 100 µM

Q: What about the TGI (IGROV1 ovarian) of the same compound?
A: > 100 µM

Q: What about the TGI (K-562 leukemia) of the same compound?
A: > 100 µM

Q: What about the TGI (KM12 colon) of the same compound?
A: > 100 µM

Q: What about the TGI (LOX IMVI melanoma) of the same compound?
A: > 100 µM

Q: And the TGI (M14 melanoma)?
A: > 100 µM

Q: And the TGI (MALME-3M melanoma)?
A: > 100 µM

Q: What about the TGI (MCF7 breast) of the same compound?
A: > 100 µM

Q: What about the TGI (MDA-MB-231 breast) of the same compound?
A: > 100 µM

Q: And the TGI (MDA-MB-435)?
A: > 100 µM

Q: And the TGI (MDA-N)?
A: > 100 µM

Q: What about the TGI (MOLT-4 leukemia) of the same compound?
A: > 100 µM

Q: And the TGI (NCI-H226 lung)?
A: > 100 µM

Q: What about the TGI (NCI-H23 lung) of the same compound?
A: > 100 µM

Q: What about the TGI (NCI-H460 lung) of the same compound?
A: > 100 µM

Q: And the TGI (NCI-H522 lung)?
A: > 100 µM

Q: And the TGI (NCI/ADR-RES ovarian)?
A: > 100 µM

Q: What about the TGI (OVCAR-3 ovarian) of the same compound?
A: > 100 µM

Q: What about the TGI (OVCAR-4 ovarian) of the same compound?
A: > 100 µM

Q: And the TGI (OVCAR-5 ovarian)?
A: > 100 µM

Q: What about the TGI (OVCAR-8 ovarian) of the same compound?
A: > 100 µM

Q: What about the TGI (PC-3 prostate) of the same compound?
A: > 100 µM

Q: And the TGI (RPMI-8226 leukemia)?
A: > 100 µM

Q: What about the TGI (RXF 393 renal) of the same compound?
A: > 100 µM

Q: What about the TGI (SF-268 CNS) of the same compound?
A: > 100 µM

Q: And the TGI (SF-295 CNS)?
A: > 100 µM

Q: What about the TGI (SF-539 CNS) of the same compound?
A: 62.3 µM

Q: What about the TGI (SK-MEL-2 melanoma) of the same compound?
A: > 100 µM

Q: What about the TGI (SK-MEL-28 melanoma) of the same compound?
A: 42.7 µM

Q: What about the TGI (SK-MEL-5 melanoma) of the same compound?
A: > 100 µM

Q: What about the TGI (SK-OV-3 ovarian) of the same compound?
A: > 100 µM

Q: What about the TGI (SN12C renal) of the same compound?
A: > 100 µM

Q: What about the TGI (SNB-19 CNS) of the same compound?
A: > 100 µM

Q: What about the TGI (SNB-75 CNS) of the same compound?
A: > 100 µM

Q: What about the TGI (SR leukemia) of the same compound?
A: > 100 µM

Q: And the TGI (SW-620 colon)?
A: > 100 µM

Q: And the TGI (T-47D breast)?
A: > 100 µM

Q: And the TGI (TK-10 renal)?
A: > 100 µM

Q: And the TGI (U251 CNS)?
A: > 100 µM

Q: And the TGI (UACC-257 melanoma)?
A: > 100 µM

Q: What about the TGI (UACC-62 melanoma) of the same compound?
A: > 100 µM

Q: What about the TGI (UO-31 renal) of the same compound?
A: > 100 µM

From PubChem BioAssay (NCI)
